Read-outs that look alike come from different tables or passages of the source.
Columns and labels:
Format in all cases: cell-based
[1] = system: OVCAR-8 cancer cells; experiment: antitumor activity, sulforhodamine B cell growth assay, OVCAR-8
Protocol: (§1) The THIQ compound containing a macrocyclic structure of the present invention was administered to various cancer cell lines, and the antitumor activity (Go value) was observed. Specifically, verification was performed according to the literature (Yamori, T.; Matsunaga, A.; Sato, S.; Yamazaki, K.; Komi, A.; Ishizu, K. et al. Cancer Res. 1999, 59, 4042) by the following procedure.
(§2) Cells were plated at an appropriate density in a 96-well plate in RPMI 1640 together with 5% fetal bovine serum, and adhered overnight. The cells were exposed to a drug for 48 hours. Then, according to the sulforhodamine B assay described by Skehan et al (Skehan P., Storeng R., Scudiero D., Monks A., McMahon J., Vistica D., Warren J. T., Bokesch H., Kenney S., Boyd M. R. J Natl. Cancer Inst, 1990, 82, 1107-1112), the cell growth rate was measured. The absorbance of the control well (C) and the test well (T) was measured at 525 nm. In addition, the time at which the drug was added was set as time 0, and the absorbance for the test well (T0) was measured. Using these measured values, the cell growth inhibitory effect (% growth=PG) was calculated by the following formula at each concentration of the drug.
(§3) (T<T0): PG=100×[(T−T0)/T]
(§4) The PG values determined above for each cell line were plotted against the concentration (logarithm) on a semi-logarithmic graph, and summarized for each visceral cancer. Concentrations at which the dose-response curve of each cell line crossed the horizontal line of PG=50%, 0%, or −50% were calculated. These concentrations were defined as Log GI50, Log TGI, and Log LC50. Actually, using two data points of the drug concentration before and after crossing each horizontal line, the drug concentration (logarithmic value) at the intersection of the straight line connecting the two points and the horizontal line for each PG was calculated.

[2] = system: DMS273 lung cancer cells; experiment: antitumor activity, sulforhodamine B cell growth assay, DMS273
Protocol: as §1, §2, §3, §4

[3] = system: MCF-7 breast cancer cells; experiment: antitumor activity, sulforhodamine B cell growth assay, MCF-7
Protocol: as §1, §2, §3, §4

[4] = system: St-4 gastric cancer cells; experiment: antitumor activity, sulforhodamine B cell growth assay, St-4
Protocol: as §1, §2, §3, §4

[5] = system: DMS114 lung cancer cells; experiment: antitumor activity, sulforhodamine B cell growth assay, DMS114
Protocol: as §1, §2, §3, §4

[6] = system: RXF-631L kidney cancer cells; experiment: antitumor activity, sulforhodamine B cell growth assay, RXF-631L
Protocol: as §1, §2, §3, §4

[7] = system: HCT-116 colorectal cancer cells; experiment: antitumor activity, sulforhodamine B cell growth assay, HCT-116
Protocol: as §1, §2, §3, §4

[8] = system: MKN74 gastric cancer cells; experiment: antitumor activity, sulforhodamine B cell growth assay, MKN74
Protocol: as §1, §2, §3, §4

[9] = system: HT-29 colorectal cancer cells; experiment: antitumor activity, sulforhodamine B cell growth assay, HT-29
Protocol: as §1, §2, §3, §4

[10] = system: PC-3 prostate cancer cells; experiment: antitumor activity, sulforhodamine B cell growth assay, PC-3
Protocol: as §1, §2, §3, §4

[11] = system: BSY-1 breast cancer cells; experiment: antitumor activity, sulforhodamine B cell growth assay, BSY-1
Protocol: as §1, §2, §3, §4

[12] = system: U251 central nervous system cancer cells; experiment: antitumor activity, sulforhodamine B cell growth assay, U251
Protocol: as §1, §2, §3, §4

[13] = system: SNB-75 central nervous system cancer cells; experiment: antitumor activity, sulforhodamine B cell growth assay, SNB-75
Protocol: as §1, §2, §3, §4

[14] = system: LOX-IMVI melanoma cells; experiment: antitumor activity, sulforhodamine B cell growth assay, LOX-IMVI
Protocol: as §1, §2, §3, §4

[15] = system: NCI-H460 lung cancer cells; experiment: antitumor activity, sulforhodamine B cell growth assay, NCI-H460
Protocol: as §1, §2, §3, §4

[16] = system: DU-145 prostate cancer cells; experiment: antitumor activity, sulforhodamine B cell growth assay, DU-145
Protocol: as §1, §2, §3, §4

[17] = system: KM-12 colorectal cancer cells; experiment: antitumor activity, sulforhodamine B cell growth assay, KM-12
Protocol: as §1, §2, §3, §4

[18] = system: A549 lung cancer cells; experiment: antitumor activity, sulforhodamine B cell growth assay, A549
Protocol: as §1, §2, §3, §4

[19] = OVCAR-8, drug exposure 48 hours, read-out: GI50 value: 50% growth inhibitory concentration
[20] = DMS273, drug exposure 48 hours, read-out: GI50 value: 50% growth inhibitory concentration
[21] = MCF-7, drug exposure 48 hours, read-out: GI50 value: 50% growth inhibitory concentration
[22] = St-4 (SI-4 in Tables 2-11), drug exposure 48 hours, read-out: GI50 value: 50% growth inhibitory concentration
[23] = DMS114, drug exposure 48 hours, read-out: GI50 value: 50% growth inhibitory concentration
[24] = RXF-631L, drug exposure 48 hours, read-out: GI50 value: 50% growth inhibitory concentration
[25] = HCT-116, drug exposure 48 hours, read-out: GI50 value: 50% growth inhibitory concentration
[26] = MKN74, drug exposure 48 hours, read-out: GI50 value: 50% growth inhibitory concentration
[27] = HT-29, drug exposure 48 hours, read-out: GI50 value: 50% growth inhibitory concentration
[28] = PC-3, drug exposure 48 hours, read-out: GI50 value: 50% growth inhibitory concentration
[29] = BSY-1, drug exposure 48 hours, read-out: GI50 value: 50% growth inhibitory concentration
[30] = U251, drug exposure 48 hours, read-out: GI50 value: 50% growth inhibitory concentration
[31] = SNB-75, drug exposure 48 hours, read-out: GI50 value: 50% growth inhibitory concentration
[32] = LOX-IMVI, drug exposure 48 hours, read-out: GI50 value: 50% growth inhibitory concentration
[33] = NCI-H460, drug exposure 48 hours, read-out: GI50 value: 50% growth inhibitory concentration
[34] = DU-145, drug exposure 48 hours, read-out: GI50 value: 50% growth inhibitory concentration
[35] = KM-12, drug exposure 48 hours, read-out: GI50 value: 50% growth inhibitory concentration
[36] = A549, drug exposure 48 hours, read-out: GI50 value: 50% growth inhibitory concentration

COc1c(C)cc2c(c1O)C1C3Cc4c5c(C)c6c(c4C(CNC(=O)C(C)NC(=O)OCC4C=C(CO5)CC5C(=O)N(c7ccccc7)C(=O)C45)N3C(C#N)C(C2)N1C)OCO6 (stereo not drawn) [Compound 18]
GI50 [1, 19]: 130 nM
GI50 [2, 20]: 100 nM
GI50 [3, 21]: 22 nM
GI50 [4, 22]: 300 nM
GI50 [5, 23]: 12 nM
GI50 [6, 24]: 310 nM
GI50 [7, 25]: 74 nM
GI50 [8, 26]: 120 nM
GI50 [9, 27]: 72 nM
GI50 [10, 28]: 170 nM
GI50 [11, 29]: 19 nM
GI50 [12, 30]: 50 nM
GI50 [13, 31]: 50 nM
GI50 [14, 32]: 27 nM
GI50 [15, 33]: 260 nM
GI50 [16, 34]: 330 nM
GI50 [17, 35]: 100 nM
GI50 [18, 36]: 540 nM

COc1c(C)cc2c(c1O)[C@@H]1[C@@H]3Cc4c5c(C)c6c(c4C(CNC(=O)[C@H](C)N(C)CC#CCO5)N3[C@@H](C#N)[C@H](C2)N1C)OCO6 [Compound 29]
GI50 ([1]; Homo sapiens, OVCAR-8, drug exposure 48 hours, read-out: GI50 value: 50% growth inhibitory concentration): 2.6 nM
GI50 ([2]; Homo sapiens, DMS-273, DMS273, drug exposure 48 hours, read-out: GI50 value: 50% growth inhibitory concentration): 1.1 nM
GI50 ([3]; Homo sapiens, MCF7, MCF-7, drug exposure 48 hours, read-out: GI50 value: 50% growth inhibitory concentration): 0.67 nM
GI50 [4, 22]: 3.8 nM
GI50 ([5]; Homo sapiens, DMS-114, DMS114, drug exposure 48 hours, read-out: GI50 value: 50% growth inhibitory concentration): 0.89 nM
GI50 [6, 24]: 3.1 nM
GI50 ([7]; Homo sapiens, HCT-116, drug exposure 48 hours, read-out: GI50 value: 50% growth inhibitory concentration): 2.4 nM
GI50 ([8]; Homo sapiens, MKN-74, MKN74, drug exposure 48 hours, read-out: GI50 value: 50% growth inhibitory concentration): 3.7 nM
GI50 ([9]; Homo sapiens, HT-29, drug exposure 48 hours, read-out: GI50 value: 50% growth inhibitory concentration): 2 nM
GI50 [10, 28]: 3 nM
GI50 [11, 29]: 0.6 nM
GI50 ([12]; Homo sapiens, U-251, U251, drug exposure 48 hours, read-out: GI50 value: 50% growth inhibitory concentration): 1.4 nM
GI50 ([13]; Homo sapiens, SNB-75, drug exposure 48 hours, read-out: GI50 value: 50% growth inhibitory concentration): 1.3 nM
GI50 ([14]; Homo sapiens, LOX-IMVI, drug exposure 48 hours, read-out: GI50 value: 50% growth inhibitory concentration): 0.59 nM
GI50 ([15]; Homo sapiens, NCI-H460, drug exposure 48 hours, read-out: GI50 value: 50% growth inhibitory concentration): 2.8 nM
GI50 ([16]; Homo sapiens, DU-145, drug exposure 48 hours, read-out: GI50 value: 50% growth inhibitory concentration): 3.5 nM
GI50 ([17]; Homo sapiens, KM12, KM-12, drug exposure 48 hours, read-out: GI50 value: 50% growth inhibitory concentration): 3.1 nM
GI50 ([18]; Homo sapiens, A549, drug exposure 48 hours, read-out: GI50 value: 50% growth inhibitory concentration): 3.4 nM

COc1c(C)cc2c(c1O)C1C3Cc4c5c(C)c6c(c4C(CNC(=O)C(C)NCC=CCO5)N3C(C#N)C(C2)N1C)OCO6 (stereo not drawn) [Compound 42]
GI50 [1, 19]: 34 nM
GI50 [2, 20]: 16 nM
GI50 [3, 21]: < 10 nM
GI50 [4, 22]: 37 nM
GI50 [5, 23]: < 10 nM
GI50 [6, 24]: 34 nM
GI50 [7, 25]: 21 nM
GI50 [8, 26]: 35 nM
GI50 [9, 27]: 13 nM
GI50 [10, 28]: 40 nM
GI50 [11, 29]: < 10 nM
GI50 [12, 30]: 13 nM
GI50 [13, 31]: < 10 nM
GI50 [14, 32]: < 10 nM
GI50 [15, 33]: 22 nM
GI50 [16, 34]: 58 nM
GI50 [17, 35]: 19 nM
GI50 [18, 36]: 110 nM

C#CCN1C(=O)[C@H]2[C@@H]3C=C(COc4c(C)c5c(c6c4C[C@H]4[C@H]7c8c(cc(C)c(OC)c8O)C[C@@H]([C@H](C#N)N4C6CNC(=O)[C@H](C)NC(=O)OC3)N7C)OCO5)C[C@H]2C1=O [Compound 47]
GI50 ([1]; Homo sapiens, OVCAR-8 cervical cancer cells, read-out: antitumor activity GI50 value: 50% growth inhibitory concentration): 1100 nM
GI50 ([2]; Homo sapiens, DMS-273, DMS273 lung cancer cells, read-out: antitumor activity GI50 value: 50% growth inhibitory concentration): 450 nM
GI50 ([3]; Homo sapiens, MCF7, MCF-7 breast cancer cells, read-out: antitumor activity GI50 value: 50% growth inhibitory concentration): 63 nM
GI50 ([4]; SI-4 gastric cancer cells, read-out: antitumor activity GI50 value: 50% growth inhibitory concentration): 2200 nM
GI50 ([5]; Homo sapiens, DMS-114, DMS114 lung cancer cells, read-out: antitumor activity GI50 value: 50% growth inhibitory concentration): 31 nM
GI50 ([6]; RXF-631L kidney cancer cells, read-out: antitumor activity GI50 value: 50% growth inhibitory concentration): 2100 nM
GI50 ([7]; Homo sapiens, HCT-116 colorectal cancer cells, read-out: antitumor activity GI50 value: 50% growth inhibitory concentration): 450 nM
GI50 ([8]; Homo sapiens, MKN-74, MKN74 gastric cancer cells, read-out: antitumor activity GI50 value: 50% growth inhibitory concentration): 1500 nM
GI50 ([9]; Homo sapiens, HT-29 colorectal cancer cells, read-out: antitumor activity GI50 value: 50% growth inhibitory concentration): 490 nM
GI50 ([10]; PC-3 prostate cancer cells, read-out: antitumor activity GI50 value: 50% growth inhibitory concentration): 1500 nM
GI50 ([11]; BSY-1 breast cancer cells, read-out: antitumor activity GI50 value: 50% growth inhibitory concentration): 150 nM
GI50 ([12]; Homo sapiens, U-251, U251 central nervous system cancer cells, read-out: antitumor activity GI50 value: 50% growth inhibitory concentration): 350 nM
GI50 ([13]; Homo sapiens, SNB-75 central nervous system cancer cells, read-out: antitumor activity GI50 value: 50% growth inhibitory concentration): 330 nM
GI50 ([14]; Homo sapiens, LOX-IMVI melanoma cells, read-out: antitumor activity GI50 value: 50% growth inhibitory concentration): 160 nM
GI50 ([15]; Homo sapiens, NCI-H460, NCl--H460 lung cancer cells, read-out: antitumor activity GI50 value: 50% growth inhibitory concentration): 630 nM
GI50 ([16]; Homo sapiens, DU-145 prostate cancer cells, read-out: antitumor activity GI50 value: 50% growth inhibitory concentration): 3900 nM
GI50 ([17]; Homo sapiens, KM12, KM-12 colorectal cancer cells, read-out: antitumor activity GI50 value: 50% growth inhibitory concentration): 450 nM
GI50 ([18]; Homo sapiens, A549 lung cancer cells, read-out: antitumor activity GI50 value: 50% growth inhibitory concentration): 3900 nM

Reference: patent US20240197726A1, “NOVEL TETRAHYDROISOQUINOLINE ALKALOID COMPOUND CONTAINING MACROCYCLE” (THE UNIVERSITY OF TOKYO, priority 2021, published 2024)
